Here are results for nine compounds from ChEMBL document CHEMBL1139280, “Potent inhibitors of HCV-NS3 protease derived from boronic acids” (Bioorg Med Chem Lett, 2009).

SMILES strings stand for the structures.

Assay [1] is described as follows: Inhibition of HCV NS3 protease assessed as hydrolysis of chromogenic 4-phenylazophenyl ester from peptide fragment Ac-DTEDVVP(Nva)-O-4-PAP by spectrophotometry. Details: species or system Hepacivirus hominis.
Assay [2] concerns Hepatitis C virus. Description: Inhibition of HCV subgenomic RNAs replication in human hepatoma cells. Type of assay: functional, Hepacivirus hominis.

On to `CC(C)(C)NC(=O)N[C@H](C(=O)N1C[C@H]2[C@@H](C1C(=O)N[C@@H](CC1CCC1)B1O[C@@H]3C[C@@H]4C[C@@H](C4(C)C)[C@]3(C)O1)C2(C)C)C(C)(C)C` (stereo partly drawn), for which the inhibitory constant (Ki) in assay [1] was 10 nM. Also, the EC90 in assay [2] is above 5 µM.

On to `CC[C@H](NC(=O)[C@@H]1[C@@H]2[C@H](CN1C(=O)[C@@H](NC(=O)N[C@H](CN(C)S(C)(=O)=O)C(C)(C)C)C(C)(C)C)C2(C)C)B(O)O`, for which the Ki in assay [1] is 52 nM. For the same compound, the EC90 in assay [2] is above 5 µM.

Take `CN(C[C@@H](NC(=O)N[C@H](C(=O)N1C[C@H]2[C@@H]([C@H]1C(=O)N[C@@H](CC1CCC1)B(O)O)C2(C)C)C(C)(C)C)C(C)(C)C)S(C)(=O)=O`: in assay [1], the Ki came out at 0.2 nM. This compound also yielded an EC90 in assay [2] above 5 µM.

With `CC[C@H](NC(=O)[C@@H]1[C@@H]2[C@H](CN1C(=O)[C@@H](NC(=O)NC(C)(C)C)C(C)(C)C)C2(C)C)B(O)O`, the Ki in assay [1] came out at 10 nM. The EC90 in assay [2] is above 5 µM.

As to `CC[C@H](NC(=O)C1[C@@H]2[C@H](CN1C(=O)[C@@H](NC(=O)NC(C)(C)C)C(C)(C)C)C2(C)C)B1O[C@@H]2C[C@@H]3C[C@@H](C3(C)C)[C@]2(C)O1` (stereo partly drawn), the Ki in assay [1] stood at 380 nM. In assay [2], the EC90 is above 5 µM.

As for `CC[C@H](NC(=O)[C@@H]1[C@@H]2[C@H](CN1C(=O)[C@@H](NC(=O)NC(C)(C)C)C(C)(C)C)C2(C)C)B1O[C@@H]2C[C@@H]3C[C@@H](C3(C)C)[C@]2(C)O1`, the Ki in assay [1] stood at 500 nM. Further, the EC90 in assay [2] is above 5 µM.

Take `CN(C[C@@H](NC(=O)N[C@H](C(=O)N1C[C@H]2[C@@H]([C@H]1C(=O)N[C@@H](CC1CCC1)B1O[C@@H]3C[C@@H]4C[C@@H](C4(C)C)[C@]3(C)O1)C2(C)C)C(C)(C)C)C(C)(C)C)S(C)(=O)=O`: the Ki in assay [1] worked out at 0.5 nM. In addition, in assay [2], the EC90 is above 5 µM.

Turning to `CC[C@H](NC(=O)[C@@H]1[C@@H]2[C@H](CN1C(=O)[C@@H](NC(=O)N[C@H](CN(C)S(C)(=O)=O)C(C)(C)C)C(C)(C)C)C2(C)C)B1O[C@@H]2C[C@@H]3C[C@@H](C3(C)C)[C@]2(C)O1`, the Ki in assay [1] is 34 nM. Also, the EC90 in assay [2] is above 5 µM.

As for `CC(C)(C)NC(=O)N[C@H](C(=O)N1C[C@H]2[C@@H]([C@H]1C(=O)NC(CC1CCC1)C(=O)C(N)=O)C2(C)C)C(C)(C)C` (stereo partly drawn) [BOCEPREVIR], the Ki in assay [1] amounted to 14 nM. Moreover, the 90% effect level in assay [2] (EC90) was put at 0.35 µM.
